Tests used:
[1] = tested on: P. falciparum (strain 3D7); test: Assay of growth inhibition, [3H]hypoxanthine incorporation; format: cell-based; settings: in vitro culture; [3H]hypoxanthine uptake and incorporation
Experimental: Assay of Growth inhibition. Thiostrepton (1525 u/mg; Calbiochem) and anisomycin (Sigma) were dissolved at 100 mM in DMSO (Pierce). P. falciparum (strain 3D7) (44) was maintained in culture with human erythrocytes (5% hematocrit) in RPMI-1640 (Life Technologies) supplemented with HEPES and sodium bicarbonate and human sera (10%) under standard conditions (18,19). The growth inhibition assay was conducted as described (20). Briefly, the parasitemia was adjusted to 0.1% parasitemia, 2.5% hematocrit and 200 μl aliquots placed in wells of a microtitre dish. Serial dilutions of drugs were made in RPMI. Thiostrepton was diluted to 10 mM in DMSO before the serial dilutions in RPMI. Aliquots (20 μl) were added in triplicate to the cultures in the microtitre plate, mixing well. At the highest concentrations (final 0.2mM), thiostrepton precipitates. After incubation for 48 hours under standard conditions, [2,8-^3 H]-hypoxanthine Moravek Biochemicals, 12.5 Ci/mmol) in RPMI (20 μl, 0.05 mCi/ml) was added to each well. After incubation for a further 24 hours, the cultures were lysed and incorporated radioactivity was measured with an automated counter.
Assay of inhibition. The effect of thiostrepton on growth and protein synthesis of P. falciparum was compared to anisomycin, since the effect of both of these drugs is on protein synthesis. To assay the effect of thiostrepton and anisomycin on the growth of P. faciparum, inhibition of the uptake and incorporation of [^3 H]hypoxanthine was quantitated at serial dilutions of the drugs on an in vitro culture of P. falciparum. […] Inhibition of the incorporation of [^3 H]leucine was also tested at the same dilutions of the drugs. For anisomycin, total protein synthesis was inhibited 50% at the IC50 (0.511 μM) for inhibition of growth, with the concentration-response almost superimposable on that of protein synthesis. […] This would occur if organelle protein synthesis was the target of inhibition (29,30).

C. parvum GCH1 oocysts = test: Intact C. parvum oocyst assay on MDBKF5D2 cell monolayers, immunofluorescence; format: cell-based
Experimental: In vitro doses of drugs. Thiostrepton (Calbiochem) was dissolved in sterile complete Dulbecco's Modified Eagle Medium (DMEM) supplemented with dimethyl sulfoxide (DMSO) at 0.2% and tested at concentrations of 800, 400, 200, and 100, 10, 1 and 0.1 μg/ml.
(§1) Intact C. parvum oocyst asset 3.0×10^4 C. parvum GCH1 oocysts per well were incubated in the above-mentioned concentrations of drug at 37° C. (8% CO2) on confluent MDBKF5D2 cell monolayers in 96 well microtiter plates. The level of infection in each well was determined and analyzed by immunofluorescence assay at 48 hours, using C. parvum sporozoite rabbit anti-serum (0.1%) and fluorescein-conjugated goat anti-rabbit antibody (1.0%). Percent inhibition was calculated by subtracting the mean parasite/drug from the mean parasitelmedium, divided by the mean parasite/medium, all of which was multiplied by 100. The analysis was performed using MCID and an inverted microscope.
In vitro doses of drugs. Thiostrepton (Calbiochem) and Phavic (NTZ) were dissolved in sterile complete Dulbecco's Modified Eagle Medium (DMEM) supplemented with dimethyl sulfoxide (DMSO) at 0.2% and tested at concentrations of 800, 400, 200, and 100 μg/ml. NTZ was tested at concentrations of 100, 10, 1 and 0.1 μg/ml. Paromomycin (Sigma) was dissolved in DMEM and tested at concentrations of 2000, 1000, 500 and 250 μg/ml.
as §1, with “assay .” for “asset”, “plates. For some monolayers, the oocysts were incubated in DMEM on the cell monolayers for four hours, at which time the monolayers were washed and then drug was added to the wells.” for “plates.”, “parasite/medium,” for “parasitelmedium,”
In vitro doses of drugs. Thiostrepton (Calbiochem), Phavic (NTZ) were dissolved in sterile complete Dulbecco's Modified Eagle Medium (DMEM) supplemented with dimethyl sulfoxide (DMSO) at 0.2%. Thiostrepton was tested at a concentration of 800 μg/ml. NTZ was tested at a concentration of 10 μg/ml. Paromomycin was dissolved in DMEM and tested at 2000 μg/ml. Cell monolayers were infected and washed, followed by the addition of drug at time intervals of 0, 2, 4, 8 and 24 hours.
as §1, with “assay.” for “asset”, “analyze” for “analyzed”, “parasite/medium,” for “parasitelmedium,”

[2] = tested on: P. falciparum (strain 3D7); settings: concentration used, near the IC99 value; cited from earlier work
[3] = tested on: rpoB/C mRNA encoded by the 35-kb plastid-like organelle genome; format: cell-based, P. falciparum; settings: thiostrepton at 8 μM, rifampin at 80 μM
Experimental: As of organelle and cyloplasmic transcript levels. RNA polymerase transcript levels were assessed by comparing the amounts of RNA synthesized at timepoints following drug treatment. Cultures of P. falciparum (3.2% parasitemia, 5% hematocrit) were treated with thiostrepton at 8 μM and rifampin (Sigma) at 80 μM; near the IC99 values (this study and ref. 22). Aliquots (5 ml) of treated and control cultures were removed and immediately processed for RNA with a guanidinium thiocyanate solution, according to the manufacturer's directions (RNAgents, Promega). All RNA samples were dissolved in 50 μl DEPC-treated water, DNase I treated as previously described (23) and an aliquot (1 μl) was removed for RT-PCR First strand synthesis of cDNA was completed with a random hexamer (Superscript Preamplification System, Life Technologies). One-tenth of the CDNA product was utilized for PCR of rpoB/C, MSA1, and rRNA. Primers corresponding to the 3' region of rpoB, 5'-GGGCTTTAGAAGCTTTTGG-3' (SEQ ID NO:1), and the 5' region of rpoC, 5'-[…]-3' (SEQ ID NO:2) were applied as described (2,3) for PCR of nascent rpoB/C transcripts. Reactions were cycled with the following parameters: 94° C./30 seconds, 42° C./30 seconds, 72° C./60 seconds, 35 cycles. Primers for amplification of nucleotide 64 to 614 of MSA1 with 5'-GTGTGATAATATTCATGG-3' (SEQ ID NO:3) and 5'-GGAGAGCATTTGGTG-3' (SEQ ID NO:4)(24) and the small subunit rRNA with oligonucleotides 841 and 844 (23) were used for amplification reactions following the parameters in the respective references except with 35 cycles. Samples were also analyzed after 25 cycles of amplification to ensure detection in the linear range of the amplification reaction, with similar results. Following electrophoresis of aliquots from the amplification reactions on 1% agarose:TBE gels, samples were transferred to nylon membranes (GeneScreen Plus, DuPont) and hybridized as described (25). The amplification products were probed with 5'-^32 P-labeled oligonucleotides. The rpoB/C products were probed with 5'-[…]-3' (SEQ ID NO:5) (nucleotide 2009-2030 of rpoB) and 5'-CGGAGAGGTATTAATACC-3' (SEQ ED NO:6) (nucleotide 108-125 of rpoC), in 5×SSC, 10 mM sodium phosphate, 0.05% sodium pyrophosphate, 1% sodium dodecyl sulfate, 5×Denhardt's solution, 100 μg/ml yeast tRNA, 42° C. and washed in the hybridization solution lacking Denhardt's and tRNA at 37° C., three times. The final wash was 1×SSC, 0.5% sodium dodecyl sulfate, 42° C. followed by autoradiography. The same results were obtained with either probe. The MSA1 amplification products were similarly probed with 5'-[…]-3' (SEQ ID NO:7) and the rRNA products with oligonucleotide 842 (23).
The target of inhibition by thiostrepton. […]

[4] = Table 4 Washed at 4 hours, 1 μg/ml
[5] = Table 4 Washed at 4 hours, 10 μg/ml
[6] = Table 4 Washed at 4 hours, .1 μg/ml
[7] = Table 5, 10 μg/ml, drug added at 0 hrs
[8] = Table 5, 10 μg/ml, drug added at 2 hrs
[9] = Table 5, 10 μg/ml, drug added at 4 hrs
[10] = Table 5, 10 μg/ml, drug added at 8 hrs
[11] = Table 5, 10 μg/ml, drug added at 24 hrs

COc1ccc(C[C@H]2NC[C@H](O)[C@H]2OC(C)=O)cc1 [anisomycin]
IC50 [1]: 500 nM

CC(=O)Oc1ccccc1C(=O)Nc1ncc([N+](=O)[O-])s1 [NTZ]
Inhibition Percent (C. parvum GCH1 oocysts; Table 3 Unwashed, 1 μg/ml): 43.60%
Inhibition Score (C. parvum GCH1 oocysts; Table 3 Unwashed, 1 μg/ml): 1 (1: 31-55%)
Parasite Count (C. parvum GCH1 oocysts; Table 3 Unwashed, 1 μg/ml): 694.75
Inhibition Percent (C. parvum GCH1 oocysts; Table 3 Unwashed, 10 μg/ml): 92.91%
Inhibition Score (C. parvum GCH1 oocysts; Table 3 Unwashed, 10 μg/ml): 4 (4: 91-100%)
Parasite Count (C. parvum GCH1 oocysts; Table 3 Unwashed, 10 μg/ml): 87.31
Inhibition Percent (C. parvum GCH1 oocysts; Table 3 Unwashed, .1 μg/ml): 10.31%
Inhibition Score (C. parvum GCH1 oocysts; Table 3 Unwashed, .1 μg/ml): 0 (0: 0-30%)
Parasite Count (C. parvum GCH1 oocysts; Table 3 Unwashed, .1 μg/ml): 1104.81
Inhibition Percent (C. parvum GCH1 oocysts; [4]): 83.27%
Inhibition Score (C. parvum GCH1 oocysts; [4]): 3 (3: 71-90%)
Parasite Count (C. parvum GCH1 oocysts; [4]): 233.44
Inhibition Percent (C. parvum GCH1 oocysts; [5]): 93.12%
Inhibition Score (C. parvum GCH1 oocysts; [5]): 4 (4: 91-100%)
Parasite Count (C. parvum GCH1 oocysts; [5]): 96.06
Inhibition Percent (C. parvum GCH1 oocysts; [6]): 4.42%
Inhibition Score (C. parvum GCH1 oocysts; [6]): 0 (0: 0-30%)
Parasite Count (C. parvum GCH1 oocysts; [6]): 1334.06
Inhibition Percent (C. parvum GCH1 oocysts; [7]): 91.12%
Inhibition Score (C. parvum GCH1 oocysts; [7]): 4 (4: 91-100%)
Parasite Count (C. parvum GCH1 oocysts; [7]): 113.06
Inhibition Percent (C. parvum GCH1 oocysts; [8]): 95.76%
Inhibition Score (C. parvum GCH1 oocysts; [8]): 4 (4: 91-100%)
Parasite Count (C. parvum GCH1 oocysts; [8]): 53.94
Inhibition Percent (C. parvum GCH1 oocysts; [9]): 91.18%
Inhibition Score (C. parvum GCH1 oocysts; [9]): 4 (4: 91-100%)
Parasite Count (C. parvum GCH1 oocysts; [9]): 112.31
Inhibition Percent (C. parvum GCH1 oocysts; [10]): 86.01%
Inhibition Score (C. parvum GCH1 oocysts; [10]): 3 (3: 71-90%)
Parasite Count (C. parvum GCH1 oocysts; [10]): 178.13
Inhibition Percent (C. parvum GCH1 oocysts; [11]): 60.60%
Inhibition Score (C. parvum GCH1 oocysts; [11]): 2 (2: 56-70%)
Parasite Count (C. parvum GCH1 oocysts; [11]): 501.63
activity when drug is added 24 hours after infection (C. parvum GCH1 oocysts; intracellular stages only): still highly inhibitory

CO[C@H]1/C=C/O[C@@]2(C)Oc3c(C)c(O)c4c(O)c(c(/C=N/N5CCN(C)CC5)c(O)c4c3C2=O)NC(=O)/C(C)=C\C=C\[C@H](C)[C@H](O)[C@@H](C)[C@@H](O)[C@@H](C)[C@H](OC(C)=O)[C@@H]1C [rifampin]
IC99 (near) [2]: ~80 µM
decay of mRNA corresponding to rpoB/C, time of drug treatment [3]: ≤ 6 h
